Data reported in PubChem BioAssay (NCI).
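48-hour exposure; five concentrations; linearly interpolated endpoints. TGI: concentration producing complete growth inhibition.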

Experiments:
Test in all cases: NCI-60 cell line screen, 48 h
[1] = test system: HCT-15 colon
[2] = test system: MALME-3M melanoma
[3] = test system: EKVX NSCLC
[4] = test system: 786-0 renal
[5] = test system: SK-MEL-5 melanoma
[6] = test system: COLO 205 colon
[7] = test system: SNB-75 CNS
[8] = test system: CAKI-1 renal
[9] = test system: KM20L2 colon
[10] = test system: OVCAR-3 ovarian
[11] = test system: A549 NSCLC
[12] = test system: RXF-631 renal
[13] = test system: K-562 leukemia
[14] = test system: IGROV1 ovarian
[15] = test system: LOX IMVI melanoma
[16] = test system: SK-MEL-28 melanoma
[17] = test system: XF 498 CNS
[18] = test system: HOP-62 NSCLC
[19] = test system: M19-MEL melanoma
[20] = test system: CCRF-CEM leukemia
[21] = test system: M14 melanoma
[22] = test system: SN12C renal
[23] = test system: SF-539 CNS
[24] = test system: HOP-18 NSCLC
[25] = test system: OVCAR-5 ovarian
[26] = test system: KM12 colon
[27] = test system: NCI-H460 lung
[28] = test system: LXFL 529 NSCLC
[29] = test system: RXF 393 renal
[30] = test system: UACC-257 melanoma
[31] = test system: HL-60(TB) leukemia
[32] = test system: UACC-62 melanoma
[33] = test system: HOP-92 NSCLC
[34] = test system: ACHN renal
[35] = test system: DMS 114 small cell lung
[36] = test system: UO-31 renal
[37] = test system: MOLT-4 leukemia
[38] = test system: SW-620 colon
[39] = test system: SK-OV-3 ovarian
[40] = test system: A498 renal
[41] = test system: SK-MEL-2 melanoma
[42] = test system: NCI-H522 lung
[43] = test system: SF-295 CNS
[44] = test system: OVCAR-4 ovarian
[45] = test system: DMS 273 small cell lung
[46] = test system: RPMI-8226 leukemia
[47] = test system: SF-268 CNS
[48] = test system: NCI-H226 lung
[49] = test system: HT29 colon
[50] = test system: TK-10 renal
[51] = test system: NCI-H23 lung
[52] = test system: OVCAR-8 ovarian
[53] = test system: SNB-19 CNS
[54] = test system: U251 CNS

Measured: TGI

CC(C)N1CC2CC(CN(C(=O)c3ccc(Cl)cc3)C2)C1
> 100 µM: all assays above
